According to US20090274739A1, “METHODS AND COMPOSITIONS FOR TREATING NEOINTIMAL HYPERPLASIA” (THE TRUSTEES OF COLUMBIA UNIVERSITY IN THE CITY OF NEW YORK, priority 2006, published 2009):

Columns and labels:
[1] = tested on: MAPK (p44/p42, ERK1/2) phosphorylation; experiment: Immunoblot of MAPK (ERK1/2, p44/p42) phosphorylation in VSMC; type: cell-based, mouse
Protocol: Western blot analysis: The cells were plated in a 100-mm culture dish in DMEM supplemented with 20% FBS for 24 h at 37° C., followed by serum starvation for 48 h. Cells were then treated with different reagents for 30 min. Cells were subsequently lysed on ice for 30 min in RIPA buffer [150 mM NaCl, 100 mM Tris (pH 8.0), 1% Triton X-100, 1% deoxycholic acid, 0.1% SDS, 5 mM EDTA, and 10 mM NaF] supplemented with 1 mM sodium vanadate, 2 mM leupeptin, 2 mM aprotinin, 1 mM phenylmethylsulfonyl fluoride (PMSF), 1 mM DTT, and 2 mM pepstatin A. After centrifugation at 14,000 rpm for 30 min, the supernatant was harvested as the total cellular protein extract, and stored at −70° C. The protein concentration was determined using Bio-Rad protein assay reagent (Richmond, Calif.). The total cellular protein extracts were separated by SDS-polyacrylamide gel electrophoresis (SDS-PAGE) and transferred to nitrocellulose membrane in 20 mM Tris-HCl (pH 8.0) containing 150 mM glycine and 20% (v/v) methanol.
Membranes were blocked with 5% nonfat dried milk in PBS containing 0.05% Tween 20 and incubated with antibodies against phospho-(Thr^202/Tyr^204) p42/p44^MAPK and p42/p44^MAPK, phospho-Akt([…]) and anti-Akt, p70^S6K, 4EBP-1. Blots were washed three times in PBS buffer, followed by incubation with the appropriate HRP-linked IgG. The specific proteins in the blots were visualized using an enhanced chemiluminescence reagent (NEN, Boston, Mass.).
VSMC were plated on 100-mm dishes, serum starved for 72 h in DMEM containing 0.1% FBS, and stimulated with 0.6 or 6 nM (10 or 100 ng/ml) leptin. Extracts were prepared by brief sonication in HKM buffer [40 mM HEPES-KOH (pH 7.6), 7.5 mM MgCl2, 0.5 mM DTT] or, in the case of Akt phosphorylation studies, by lysing cells on ice for 30 min in RIPA buffer. 70 μg of protein per sample were subjected to immunoblotting by standards protocols. Imaging and densitometry were performed on an Odyssey infrared system (Li-Cor, Lincoln, Neb.).

[2] = tested on: murine femoral artery wire injury model (neointimal hyperplasia); experiment: Femoral artery wire injury model, morphometry of neointimal formation; type: in vivo, mouse; set-up: Lumen / Media / Intima / TVA (total vessel area): unit not given here
Text: Animal Models and Drug Treatments. Wild type C57BL/6J background mice and mice deficient for leptin (C57BL/6J-Lepob; ob/ob) or the leptin receptor (C57BL/6J-m+/+Lepdb; db/db) were purchased from Charles Jackson Laboratories, Maine. Mice were obtained at ages 6-8 weeks old and average weight 15 g. Animals were fed standard rodent chow and tap water ad libitum. Procedures and animal care were approved by the Institutional Animal Care and Use Committee. Mice were subjected to femoral artery wire injury or sham injury described below 24 hr prior to starting pharmacological treatments. Sirolimus was administered by intraperitoneal injection once per day for 14 days as a suspension in 0.2% sodium carboxymethyl cellulose and 0.25% polysorbate-80; duplicate experiments were accomplished with 0.5% DMSO. Leptin or LY294002 was administered by intraperitoneal injection once per day for 14 days as a suspension in PBS. Plasma leptin levels were measured at baseline, 3, 6, and 10 hr after leptin injection using an ELISA assay (R&D). Leptin plus the vehicle used for both sirolimus and LY294002 was used as the control group for the treatment groups with sirolimus and LY294002. After the 2-week treatment, animals were processed for femoral artery morphometry.
Femoral Artery Injury Model. Endoluminal injury of bilateral femoral arteries was performed according to the method of Roque et al. with minor modification 27. […] Briefly, to denude and dilate femoral arteries, a 0.014″ angioplasty guidewire (Guidant) was passed endoluminally 3 times to the level of the aortic bifurcation. A sham protocol was performed where the arteries underwent dissection, clamping, and ligature without passage of the guidewire.
Computer-aided quantitative morphometry to measure luminal, medial, intimal, and vessel areas were performed as previously described 27 with minor modification. Mice were euthanized via CO2 asphyxiation prior to en bloc excision of hind limbs. Briefly, multiple segments of the common femoral artery at the level of injury were fixed in 10% Zinc Formalin, embedded in paraffin, sectioned at […] thickness, and subjected to Elastic-Van Gieson staining at a Columbia University Core Histology facility. In many cases, arteries underwent immunohistochemical staining for smooth muscle a-actin to highlight the media and neointima. Photomicrographs were captured on Adobe Photoshop 7.0 and transferred to Scion Image software for quantitative analysis. Specimens were analyzed by two independent operators blinded to the treatment groups. Microsoft Excel software was used to calculate the RNI values from I/M ratios in the absence and presence of pharmacological inhibitors, as detailed in the text.
Surgical Procedures: The mouse femoral artery wire injury model of was used with minor modifications (Roque M, et al., Arterioscler Thromb Vasc Biol, 2000, 20(2):335-42). Briefly, forty-two male mice were studied. Endoluminal injury to the common femoral artery was produced by either 3 passages of a 0.014″ diameter angioplasty guidewire (Guidant, Santa Clara, Calif.). […] While being viewed under a surgical microscope, a groin incision was made and the femoral artery was isolated and temporarily clamped distal to the inguinal ligament. An arteriotomy was performed and the guidewire was passed 3 times to the level of the aortic bifurcation. The artery was then ligated proximal to the arteriotomy. A sham protocol was carried out on the contralateral side where the arteries underwent dissection, temporary clamping, and ligature, without passage of the wire. The formation of the neointima was confirmed in this model as being comprised mainly of VSMCs through immunohistochemical staining of representative sections for α-smooth muscle actin via a commercial kit (Sigma).
For all treatment protocols, rapamycin was administered by intraperitoneal injection once per day, for 14 days, as a suspension in 0.2% sodium carboxymethyl cellulose and 0.25% polysorbate-80. […]

[3] = wire injury, leptin 0.4 mg/kg daily i.p. 14 days, mean ± SD

Leptin: recombinant leptin; hormone derived from adipose tissue, encoded by the Ob gene
phosphorylation of the p44 and p42 forms of MAPK ([1]; Example 1, leptin 10 ng/mL): stimulated the phosphorylation | time of maximum ERK1/2 phosphorylation ([1]; Example 2, leptin 100 ng/ml, decreasing thereafter at 45 min): 10 min | phosphorylation of MAPK ([1]; Example 5, leptin 6 nM): stimulated | intimal area and intimal:media ratio ([2]; Example 2, leptin 0.4 mg/kg/d i.p. 14 days vs vehicle): significantly increased | I/M (intima:media ratio) [2, 3]: 1.883 ± 0.140 | Intima [2, 3]: 0.028 ± 0.004 | Lumen [2, 3]: 0.010 ± 0.004 | Media [2, 3]: 0.015 ± 0.001 | TVA (total vessel area) [2, 3]: 0.053 ± 0.007
